Results as given in PubChem BioAssay AID2060883 (Molecular Pharmacology Branch, DTP, NCI, 2025).

Tested on: 843782-103-R-J1-PDC complex spheroid viability
Assay: Anticancer human tumor 843782-103-R-J1-PDC patient-derived lung adenocarcinoma cell line growth inhibition [RAS]
Details: for IC50: curve of first compound; for viability, T/C: stronger effect = lower value
Text: RAS pathway inhibitors in Combinations in Complex Spheroids
A high-throughput screen of multi-cell type tumor spheroids was designed to identify active combinations of RAS pathway inhibitors and targeted small molecules. Complex spheroids include a stromal component modeled by human endothelial cells (HUVEC) and fibroblasts modeled by human mesenchymal stem cells (MSCs). The concentration ranges selected for each drug and investigational agent were based upon clinically achievable concentrations if the clinical Cmax of the agent was known.
Compounds. The drugs and investigational agents: abemaciclib (NSC768073), cobimetinib (NSC768068), divarasib (GDC6063, NSC841802), docetaxel (NSC628503), GDC-1971 (RLY-1971, NSC841576), gemcitabine (NSC613327), inavolisib (NSC800729), ipatasertib (NSC767898), KB-0742 (NSC834161), MRTX-1133 (NSC836407), osimertinib (NSC779217), RMC-4630 (NSC839698), RMC-6236 (NSC851965), RMC-6291 (NSC852671), Ro-3306 (NSC812927), sapanisertib (NSC764658), SN-38 (NSC673596), staurosporine (NSC755774), SY5609 (NSC837396), and tovorafenib (DAY101, NSC766906), were obtained from the National Cancer Institute (NCI) Developmental Therapeutics Program Chemical Repository. The FDA-approved anticancer drug set is available from the NCI Developmental Therapeutics Program. […] The stock solutions were prepared in dimethyl sulfoxide (DMSO, Sigma-Aldrich, St. Louis, MO, cat. D2650) at 800-fold the tested concentration and stored at -70 degrees C prior to their use. All drugs and investigational agents were tested over a range starting from a high concentration at or near the clinical Cmax and decreasing in half-log increments. If the clinical Cmax for an agent had not been determined, the highest concentration tested was 10 microM.
Cell Culture. All cells were maintained in an incubator at 37 degrees C and 5% CO2 with 95% humidity. The PDC lines were cultured according to standard operating procedures established by the NCI PDMR. All PDCs were thawed and cultured in Matrigel-coated flasks prepared with a working solution of 1X Ham's F-12 nutrient mix, without supplementation (Invitrogen, Waltham, MA, cat. 11765054), 100 U/mL penicillin-streptomycin (Invitrogen, cat. 15140122), and 2.5% Matrigel (Corning Inc., Corning, NY, cat. 354248) for the first three passages. The 362531-283-R-J2-PDC and 782815-120-R-J1-PDC lines were cultured in 6C/Colon 1B media, which includes advanced DMEM/F-12 (Thermo Fisher Scientific, cat. 12634028), 10 mM HEPES (Thermo Fisher Scientific, cat. 15630080), 1X GlutaMAX supplement (Thermo Fisher Scientific, cat. 35050061), 0.1 mg/mL primocin (InvivoGen, San Diego, CA, cat. ant-pm-2), 10% defined fetal bovine serum, heat inactivated (HyClone Laboratories Inc., Logan, UT, cat. SH30070.03HI), 50% L-WRN conditioned media (ATCC, cat. CRL-3276), 1.25 mM N-Acetyl-L-cysteine (Sigma-Aldrich, cat. A9165), 10 mM nicotinamide (Sigma-Aldrich, cat. N0636), 1X B-27 supplement (Thermo Fisher Scientific, cat. 17504044), 1X N-2 supplement (Thermo Fisher Scientific, cat. 17502048), 50 ng/mL human EGF (Thermo Fisher Scientific, cat. PHG0311), and 10 microM Y-27632 dihydrochloride (Tocris Bioscience, cat. 1254). The K12877-001-R-J1-PDC line was cultured in 6I media, which includes all 6C/Colon 1B media plus 10 ng/mL human FGF-10 (PeproTech, cat. 100-26), 1 ng/mL human FGF-2 (PeproTech, cat. 100-18B), 1 µM prostaglandin E2 (Tocris Bioscience, cat. 2296), […] hydrocortisone (Sigma-Aldrich, cat. H4001), and […] bovine insulin (Sigma-Aldrich, cat. I6634). The K86415-001-R-J1-PDC line was cultured in 6D media, which includes all 6C/Colon 1B media components minus the L-WRN conditioned media. The 485176-168-R4-J1-PDC was cultured in PANC media, which includes all 6C/Colon 1B media plus 100 ng/mL human FGF-10 (PeproTech, cat. 100-26), 500 nM SB-431542 (Selleckchem, cat. S1067), and 10 nM gastrin (Tocris Bioscience, cat. 3006). […]

[1] = second compound 0.0316 µM, first compound 0.0316 µM
[2] = second compound 0.0316 µM, first compound 0.1 µM
[3] = second compound 0.0316 µM, first compound 0.316 µM
[4] = second compound 0.0316 µM, first compound 1 µM
[5] = second compound 0.0316 µM, first compound 3.16 µM
[6] = second compound 0.0316 µM, first compound 10 µM
[7] = second compound 0.1 µM, first compound 0.0316 µM
[8] = second compound 0.1 µM, first compound 0.1 µM
[9] = second compound 0.1 µM, first compound 0.316 µM
[10] = second compound 0.1 µM, first compound 1 µM
[11] = second compound 0.1 µM, first compound 3.16 µM
[12] = second compound 0.1 µM, first compound 10 µM
[13] = second compound 0.316 µM, first compound 0.0316 µM
[14] = second compound 0.316 µM, first compound 0.1 µM
[15] = second compound 0.316 µM, first compound 0.316 µM
[16] = second compound 0.316 µM, first compound 1 µM
[17] = second compound 0.316 µM, first compound 3.16 µM
[18] = second compound 0.316 µM, first compound 10 µM
[19] = second compound 1 µM, first compound 0.0316 µM
[20] = second compound 1 µM, first compound 0.1 µM
[21] = second compound 1 µM, first compound 0.316 µM
[22] = second compound 1 µM, first compound 1 µM
[23] = second compound 1 µM, first compound 3.16 µM
[24] = second compound 1 µM, first compound 10 µM
[25] = second compound 3.16 µM, first compound 0.0316 µM
[26] = second compound 3.16 µM, first compound 0.1 µM
[27] = second compound 3.16 µM, first compound 0.316 µM
[28] = second compound 3.16 µM, first compound 1 µM
[29] = second compound 3.16 µM, first compound 3.16 µM
[30] = second compound 3.16 µM, first compound 10 µM
[31] = second compound 10 µM, first compound 0.0316 µM
[32] = second compound 10 µM, first compound 0.1 µM
[33] = second compound 10 µM, first compound 0.316 µM
[34] = second compound 10 µM, first compound 1 µM
[35] = second compound 10 µM, first compound 3.16 µM
[36] = second compound 10 µM, first compound 10 µM
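Further: viability read after seven days of compound exposure.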

## CC(C)NCC(C(=O)N1CCN(c2ncnc3c2C(C)CC3O)CC1)c1ccc(Cl)cc1 (stereo unspecified) + C#Cc1c(F)ccc2cc(O)cc(-c3ncc4c(N5CC6CCC(C5)N6)nc(OCC56CCCN5CC(F)C6)nc4c3F)c12
Second compound 0.0316 µM
  IC50: 1870 nM
Second compound 0.1 µM
  IC50: 1720 nM
Second compound 0.316 µM
  IC50: 1560 nM
Second compound 1 µM
  IC50: 930 nM
Second compound 3.16 µM
  IC50: 390 nM
Second compound 10 µM
  IC50: 160 nM
[1]
  viability, T/C: 99.3%
[2]
  viability, T/C: 99.2%
[3]
  viability, T/C: 90.4%
[4]
  viability, T/C: 71.6%
[5]
  viability, T/C: 32.1%
[6]
  viability, T/C: 13.8%
[7]
  viability, T/C: 106%
[8]
  viability, T/C: 99.1%
[9]
  viability, T/C: 94.3%
[10]
  viability, T/C: 69.9%
[11]
  viability, T/C: 28%
[12]
  viability, T/C: 13.5%
[13]
  viability, T/C: 103%
[14]
  viability, T/C: 95.1%
[15]
  viability, T/C: 86.9%
[16]
  viability, T/C: 69.2%
[17]
  viability, T/C: 21.4%
[18]
  viability, T/C: 13.7%
[19]
  viability, T/C: 100%
[20]
  viability, T/C: 94.6%
[21]
  viability, T/C: 79.2%
[22]
  viability, T/C: 48%
[23]
  viability, T/C: 21.2%
[24]
  viability, T/C: 10.3%
[25]
  viability, T/C: 84.6%
[26]
  viability, T/C: 75%
[27]
  viability, T/C: 53.3%
[28]
  viability, T/C: 31.8%
[29]
  viability, T/C: 13%
[30]
  viability, T/C: 7.27%
[31]
  viability, T/C: 62.8%
[32]
  viability, T/C: 55%
[33]
  viability, T/C: 42.3%
[34]
  viability, T/C: 20%
[35]
  viability, T/C: 10.1%
[36]
  viability, T/C: 4.52%

## CC(Nc1ccc2c(c1)OCCn1cc(N3C(=O)OCC3C(F)F)nc1-2)C(N)=O (stereo unspecified) + C#Cc1c(F)ccc2cc(O)cc(-c3ncc4c(N5CC6CCC(C5)N6)nc(OCC56CCCN5CC(F)C6)nc4c3F)c12
Second compound 0.0316 µM
  IC50: 457 nM
Second compound 0.1 µM
  IC50: 375 nM
Second compound 0.316 µM
  IC50: 297 nM
Second compound 1 µM
  IC50: 174 nM
Second compound 3.16 µM
  IC50: 57.7 nM
Second compound 10 µM
  IC50: < 31.6 nM
[1]
  viability, T/C: 96.3%
[2]
  viability, T/C: 73.7%
[3]
  viability, T/C: 59.3%
[4]
  viability, T/C: 35.5%
[5]
  viability, T/C: 24.5%
[6]
  viability, T/C: 16.1%
[7]
  viability, T/C: 96.4%
[8]
  viability, T/C: 76.6%
[9]
  viability, T/C: 50%
[10]
  viability, T/C: 36.3%
[11]
  viability, T/C: 22.8%
[12]
  viability, T/C: 15%
[13]
  viability, T/C: 91.2%
[14]
  viability, T/C: 72.9%
[15]
  viability, T/C: 46.2%
[16]
  viability, T/C: 32.6%
[17]
  viability, T/C: 23.2%
[18]
  viability, T/C: 15%
[19]
  viability, T/C: 89.9%
[20]
  viability, T/C: 59.5%
[21]
  viability, T/C: 39.6%
[22]
  viability, T/C: 25.1%
[23]
  viability, T/C: 20%
[24]
  viability, T/C: 10.9%
[25]
  viability, T/C: 63%
[26]
  viability, T/C: 36.7%
[27]
  viability, T/C: 26.6%
[28]
  viability, T/C: 18.2%
[29]
  viability, T/C: 12.2%
[30]
  viability, T/C: 8.25%
[31]
  viability, T/C: 41.2%
[32]
  viability, T/C: 22.2%
[33]
  viability, T/C: 21.3%
[34]
  viability, T/C: 15.4%
[35]
  viability, T/C: 8.8%
[36]
  viability, T/C: 3.28%

## O=C(c1ccc(F)c(F)c1Nc1ccc(I)cc1F)N1CC(O)([C@@H]2CCCCN2)C1 + C#Cc1c(F)ccc2cc(O)cc(-c3ncc4c(N5CC6CCC(C5)N6)nc(OCC56CCCN5CC(F)C6)nc4c3F)c12
Second compound 0.0316 µM
  IC50: 287 nM
Second compound 0.1 µM
  IC50: 231 nM
Second compound 0.316 µM
  IC50: 230 nM
Second compound 1 µM
  IC50: 129 nM
Second compound 3.16 µM
  IC50: 35.2 nM
Second compound 10 µM
  IC50: 6.34 nM
Second compound 0.0316 µM, first compound 0.00316 µM
  viability, T/C: 107%
Second compound 0.0316 µM, first compound 0.01 µM
  viability, T/C: 94.2%
[1]
  viability, T/C: 92.5%
[2]
  viability, T/C: 84.1%
[3]
  viability, T/C: 45.9%
[4]
  viability, T/C: 20%
Second compound 0.1 µM, first compound 0.00316 µM
  viability, T/C: 107%
Second compound 0.1 µM, first compound 0.01 µM
  viability, T/C: 104%
[7]
  viability, T/C: 89.5%
[8]
  viability, T/C: 74%
[9]
  viability, T/C: 39.4%
[10]
  viability, T/C: 27.7%
Second compound 0.316 µM, first compound 0.00316 µM
  viability, T/C: 102%
Second compound 0.316 µM, first compound 0.01 µM
  viability, T/C: 90.7%
[13]
  viability, T/C: 89.1%
[14]
  viability, T/C: 75.5%
[15]
  viability, T/C: 39.6%
[16]
  viability, T/C: 22.3%
Second compound 1 µM, first compound 0.00316 µM
  viability, T/C: 96%
Second compound 1 µM, first compound 0.01 µM
  viability, T/C: 95.4%
[19]
  viability, T/C: 81.8%
[20]
  viability, T/C: 56.6%
[21]
  viability, T/C: 28.9%
[22]
  viability, T/C: 19.7%
Second compound 3.16 µM, first compound 0.00316 µM
  viability, T/C: 81.5%
Second compound 3.16 µM, first compound 0.01 µM
  viability, T/C: 65.7%
[25]
  viability, T/C: 53.8%
[26]
  viability, T/C: 34.9%
[27]
  viability, T/C: 26.4%
[28]
  viability, T/C: 18.4%
Second compound 10 µM, first compound 0.00316 µM
  viability, T/C: 56.3%
Second compound 10 µM, first compound 0.01 µM
  viability, T/C: 46.5%
[31]
  viability, T/C: 34.5%
[32]
  viability, T/C: 26.9%
[33]
  viability, T/C: 19.2%
[34]
  viability, T/C: 14%
